Test results from patent publication US10689377B2 (Mirati Therapeutics, Inc., priority 2017, dated 2020).
pIC50: −log10 of the molar value.

Each compound was assayed against KRas G12C (Homo sapiens, UniProt P01116, G12C) (assay: Cellular inhibition of KRas G12C measured by Phospho-ERK in NCI-H358 cells). Settings: pERK(Thr202/Tyr204) normalized with GAPDH, NCI-H358 cells, 3 hours; read-out: IC50.
Type: cell-based
Summary of the method: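 Ratio of phospho-ERK(Thr202/Tyr204) to GAPDH, read by near-infrared secondary antibodies on fixed, permeabilised NCI-H358 cells, expressed relative to DMSO control. Compound exposure was 3 h at 0.5% DMSO. IC50 values come from 4-parameter curve fits.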

Chain of KRas G12C (P01116 1-188 isoform P01116-2 G12C): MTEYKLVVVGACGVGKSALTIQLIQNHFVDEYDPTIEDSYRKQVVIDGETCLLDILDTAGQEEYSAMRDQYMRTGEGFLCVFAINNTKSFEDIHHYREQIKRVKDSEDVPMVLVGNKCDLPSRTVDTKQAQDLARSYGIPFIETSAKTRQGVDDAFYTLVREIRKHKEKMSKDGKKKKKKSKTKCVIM

C=C(F)C(=O)N1CCN(c2nc(OC[C@@H]3CCCN3C)nc3c2CCN(c2c(C)c(C)cc4[nH]ncc24)C3)C[C@@H]1CC#N [Example 521, 2-[(2S)-4-[7-(5,6-dimethyl-1H-indazol-4-yl)-2-[[(2S)-1-methylpyrrolidin-2-yl]methoxy]-6,8-dihydro-5H-pyrido[3,4-d]pyrimidin-4-yl]-1-(2-fluoroprop-2-enoyl)piperazin-2-yl]acetonitrile] and C=C(F)C(=O)N1CCN(c2nc(OC[C@@H]3CCCN3C)nc3c2CCN(c2c(C(F)(F)F)c(C)cc4[nH]ncc24)C3)C[C@@H]1CC#N [Example 527] fall in the same range of pIC50: 6.00 to 10.00 for the first, 6.00 to 10.00 for the second.

Cc1cccc2cccc(N3CCc4c(nc(OC[C@H]5C[C@@H](F)CN5C)nc4N4CCN(C(=O)/C=C/CO)[C@@H](CC#N)C4)C3)c12 [Example 522, 2-((S)-4-(2-(((2R,4R)-4-fluoro-1-methylpyrrolidin-2-yl)methoxy)-7-(8-methylnaphthalen-1-yl)-5,6,7,8-tetrahydropyrido[3,4-d]pyrimidin-4-yl)-1-((E)-4-hydroxybut-2-enoyl)piperazin-2-yl)acetonitrile] and CO[C@@H]1C[C@H](COc2nc3c(c(N4CCN(C(=O)/C=C/CO)[C@@H](CC#N)C4)n2)CCN(c2cccc4cccc(C)c24)C3)N(C)C1 [Example 523, 2-[(2S)-1-[(E)-4-hydroxybut-2-enoyl]-4-[2-[[(2R,4R)-4-methoxy-1-methyl-pyrrolidin-2-yl]methoxy]-7-(8-methyl-1-naphthyl)-6,8-dihydro-5H-pyrido[3,4-d]pyrimidin-4-yl]piperazin-2-yl]acetonitrile] fall in the same range of pIC50: 6.00 to 10.00 for the first, 6.00 to 10.00 for the second.

C=C(NC(C)=O)C(=O)N1CCN(c2nc(OC[C@@H]3CCCN3C)nc3c2CCN(c2cccc4cccc(C)c24)C3)C[C@@H]1CC#N [Example 525, N-(3-((S)-2-(cyanomethyl)-4-(7-(8-methylnaphthalen-1-yl)-2-(((S)-1-methylpyrrolidin-2-yl)methoxy)-5,6,7,8-tetrahydropyrido [3,4-d]pyrimidin-4-yl)piperazin-1-yl)-3-oxoprop-1-en-2-yl)acetamide] and C=C(F)C(=O)N1CCN(c2nc(OC[C@@H]3CCCN3C)nc3c2CCN(c2cccc4cccc(CC)c24)C3)C[C@@H]1CC#N [Example 608, 2-[(2S)-4-[7-(8-ethyl-1-naphthyl)-2-[[(2S)-1-methylpyrrolidin-2-yl]methoxy]-6,8-dihydro-5H-pyrido[3,4-d]pyrimidin-4-yl]-1-(2-fluoroprop-2-enoyl)piperazin-2-yl]acetonitrile] fall in the same range of pIC50: 6.00 to 10.00 for the first, 6.00 to 10.00 for the second.

Cc1cccc2cccc(N3CCc4c(nc(OC[C@@H]5CCCN5C)nc4N4CCN(C(=O)/C=C/c5ccncc5)[C@@H](CC#N)C4)C3)c12 [Example 526, 2-((S)-4-(7-(8-methylnaphthalen-1-yl)-2-(((S)-1-methylpyrrolidin-2-yl)methoxy)-5,6,7,8-tetrahydropyrido[3,4-d]pyrimidin-4-yl)-1-((E)-3-(pyridin-4-yl)acryloyl)piperazin-2-yl)acetonitrile] and Cc1cccc2cccc(N3CCc4c(nc(OC[C@@H]5CC(F)(F)CN5C)nc4N4CCN(C(=O)/C=C/CF)[C@@H](CC#N)C4)C3)c12 [Example 601, 2-[(2S)-4-[2-[[(2S)-4,4-difluoro-1-methyl-pyrrolidin-2-yl]methoxy]-7-(8-methyl-1-naphthyl)-6,8-dihydro-5H-pyrido[3,4-d]pyrimidin-4-yl]-1-[(E)-4-fluorobut-2-enoyl]piperazin-2-yl]acetonitrile] fall in the same range of pIC50: 6.00 to 10.00 for the first, 6.00 to 10.00 for the second.

C=C(F)C(=O)N1CCN(c2nc(OC[C@@H]3CCC(=O)N3C)nc3c2CCN(c2cccc4cccc(C)c24)C3)C[C@@H]1CC#N [Example 569, 2-[(2S)-1-(2-Fluoroprop-2-enoyl)-4-[7-(8-methyl-1-naphthyl)-2-[[(2S)-1-methyl-5-oxo-pyrrolidin-2-yl]methoxy]-6,8-dihydro-5H-pyrido[3,4-d]pyrimidin-4-yl]piperazin-2-yl]acetonitrile] and C=C(F)C(=O)N1CCN(c2nc(OC[C@@H]3[C@H](O)CC(=O)N3C)nc3c2CCN(c2cccc4cccc(C)c24)C3)C[C@@H]1CC#N [Example 570, 2-[(2S)-1-(2-Fluoroprop-2-enoyl)-4-[2-[[(2R,3R)-3-hydroxy-1-methyl-5-oxo-pyrrolidin-2-yl]methoxy]-7-(8-methyl-1-naphthyl)-6,8-dihydro-5H-pyrido[3,4-d]pyrimidin-4-yl]piperazin-2-yl]acetonitrile] cannot be ordered by pIC50: less than 6.00 for the first, less than 6.00 for the second.

C=C(F)C(=O)N1CCN(c2nc(OC[C@@H]3[C@H](O)CC(=O)N3C)nc3c2CCN(c2cccc4cccc(Cl)c24)C3)C[C@@H]1CC#N [Example 573, 2-[(2S)-4-[7-(8-Chloro-1-naphthyl)-2-[[(2R,3R)-3-hydroxy-1-methyl-5-oxo-pyrrolidin-2-yl]methoxy]-6,8-dihydro-5H-pyrido[3,4-d]pyrimidin-4-yl]-1-(2-fluoroprop-2-enoyl)piperazin-2-yl]acetonitrile] and C=C(F)C(=O)N1CCN(c2nc(OCC3CCCC3)nc3c2CCN(c2cccc4cccc(C)c24)C3)C[C@@H]1CC#N [Example 603, 2-[(2S)-4-[2-(cyclopentylmethoxy)-7-(8-methyl-1-naphthyl)-6,8-dihydro-5H-pyrido[3,4-d]pyrimidin-4-yl]-1-(2-fluoroprop-2-enoyl)piperazin-2-yl]acetonitrile] cannot be ordered by pIC50: less than 6.00 for the first, less than 6.00 for the second.

CN1CC[C@@H](COc2nc3c(c(N4CCN(C(=O)/C=C/CF)[C@@H](CC#N)C4)n2)CCN(c2cccc4cccc(Cl)c24)C3)C1 [Example 584, 2-[(2S)-4-[7-(8-chloro-1-naphthyl)-2-[[(3R)-1-methylpyrrolidin-3-yl]methoxy]-6,8-dihydro-5H-pyrido[3,4-d]pyrimidin-4-yl]-1-[(E)-4-fluorobut-2-enoyl]piperazin-2-yl]acetonitrile] and C=C(F)C(=O)N1CCN(c2nc(OC[C@@H]3CCCN3C)nc3c2CCN(c2cccc4ccccc24)C3)C[C@@H]1CC#N [Example 602, 2-[(2S)-1-(2-fluoroprop-2-enoyl)-4-[2-[[(2S)-1-methylpyrrolidin-2-yl]methoxy]-7-(1-naphthyl)-6,8-dihydro-5H-pyrido[3,4-d]pyrimidin-4-yl]piperazin-2-yl]acetonitrile] fall in the same range of pIC50: 6.00 to 10.00 for the first, 6.00 to 10.00 for the second.

C=C(F)C(=O)N1CCN(c2nc(OC[C@@H]3CCCN3C)nc3c2CCN(c2c(C)c(C)cc4[nH]ncc24)C3)C[C@@H]1CC#N [Example 604, 2-[(2S)-4-[7-(5,6-dimethyl-1H-indazol-4-yl)-2-[[(2S)-1-methylpyrrolidin-2-yl]methoxy]-6,8-dihydro-5H-pyrido[3,4-d]pyrimidin-4-yl]-1-(2-fluoroprop-2-enoyl)piperazin-2-yl]acetonitrile] and C=C(F)C(=O)N1CCN(c2nc(OC[C@@H]3C[C@@H](F)CN3C)nc3c2CCN(c2c(C)c(C)cc4[nH]ncc24)C3)C[C@@H]1CC#N [Example 606, 2-((S)-4-(7-(5,6-dimethyl-1H-indazol-4-yl)-2-(((2S,4R)-4-fluoro-1-methylpyrrolidin-2-yl)methoxy)-5,6,7,8-tetrahydropyrido[3,4-d]pyrimidin-4-yl)-1-(2-fluoroacryloyl)piperazin-2-yl)acetonitrile] fall in the same range of pIC50: 6.00 to 10.00 for the first, 6.00 to 10.00 for the second.

C=C(F)C(=O)N1CCN(c2nc(OCc3ccccn3)nc3c2CCN(c2cccc4cccc(C)c24)C3)C[C@@H]1CC#N [Example 605, 2-[(2S)-1-(2-fluoroprop-2-enoyl)-4-[7-(8-methyl-1-naphthyl)-2-(2-pyridylmethoxy)-6,8-dihydro-5H-pyrido[3,4-d]pyrimidin-4-yl]piperazin-2-yl]acetonitrile] and C=C(F)C(=O)N1CCN(c2ncnc3c2CCN(c2cccc4cccc(C)c24)C3)C[C@@H]1CC#N [Example 611, (S)-2-(1-(2-fluoroacryloyl)-4-(7-(8-methylnaphthalen-1-yl)-5,6,7,8-tetrahydropyrido[3,4-d]pyrimidin-4-yl)piperazin-2-yl)acetonitrile] cannot be ordered by pIC50: less than 6.00 for the first, less than 6.00 for the second.

C=C(F)C(=O)N1CCN(c2nc(OC[C@@H]3CCCN3C)nc3c2CCN(c2cncc4ccc(C)cc24)C3)C[C@@H]1CC#N [Example 607, 2-((S)-1-(2-fluoroacryloyl)-4-(7-(6-methylisoquinolin-4-yl)-2-(((S)-1-methylpyrrolidin-2-yl)methoxy)-5,6,7,8-tetrahydropyrido[3,4-d]pyrimidin-4-yl)piperazin-2-yl)acetonitrile] and C=C(F)C(=O)N1CCN(c2nc(OC[C@@H]3CCCN3C)nc3c2CCN(c2cncc4ccc(F)cc24)C3)C[C@@H]1CC#N [Example 609, 2-[(2S)-4-[7-(6-fluoro-4-isoquinolyl)-2-[[(2S)-1-methylpyrrolidin-2-yl]methoxy]-6,8-dihydro-5H-pyrido[3,4-d]pyrimidin-4-yl]-1-(2-fluoroprop-2-enoyl)piperazin-2-yl]acetonitrile] fall in the same range of pIC50: 6.00 to 10.00 for the first, 6.00 to 10.00 for the second.

C=C(F)C(=O)N1CCN(c2ncnc3c2CCN(c2cccc4ccccc24)C3)C[C@@H]1CC#N [Example 610, (S)-2-(1-(2-fluoroacryloyl)-4-(7-(naphthalen-1-yl)-5,6,7,8-tetrahydropyrido[3,4-d]pyrimidin-4-yl)piperazin-2-yl)acetonitrile] and C=C(F)C(=O)N1CCN(c2ncnc3c2CCN(c2cncc4cccc(Cl)c24)C3)C[C@@H]1CC#N [Example 612, (S)-2-(4-(7-(5-chloroisoquinolin-4-yl)-5,6,7,8-tetrahydropyrido[3,4-d]pyrimidin-4-yl)-1-(2-fluoroacryloyl)piperazin-2-yl)acetonitrile] cannot be ordered by pIC50: less than 6.00 for the first, less than 6.00 for the second.

With C=C(F)C(=O)N1CCN(c2nc(OC[C@@H]3CC(F)(F)CN3C)nc3c2CCN(c2c(C)c(C)cc4[nH]ncc24)C3)C[C@@H]1CC#N [Example 613, 2-((S)-4-(2-(((S)-4,4-difluoro-1-methylpyrrolidin-2-yl)methoxy)-7-(5,6-dimethyl-1H-indazol-4-yl)-5,6,7,8-tetrahydropyrido[3,4-d]pyrimidin-4-yl)-1-(2-fluoroacryloyl)piperazin-2-yl)acetonitrile] the pIC50 was 6.00 to 10.00.
